In patent US9956199B2, “Chromane-like cyclic prenylflavonoids for the medical intervention in neurological disorders” (priority 2011, dated 2018):
Entries after “also recorded” stand apart in the source; their conditions may differ.

Key:
PC12 cells [1] = experiment: PC12 cobalt-chloride stress test, LDH release; type: cell-based, rat; details: CoCl2 300 μM, 24 hours; compounds 10 μM, NGF 100 ng/ml; FIG. 7B
Experimental: (§1) For the neuroprotection assay PC12 cells were stressed with cobalt chloride 300 μM for 24 hours and the activity of Caspase 3/7 and LDH release were measured. NGF 50 ng/ml was used as a positive control for Caspase 3/7 activity and NGF 100 ng/ml was used as a positive control for LDH release.
(§2) For the PC12-CoCl2-Assay PC12 cells were used (ATCC: CRL-1721 ™). These cells were growing in RPMI supplemented with 10% Horse Serum (heat inactivated) (Sigma Aldrich, Taufkirchen, Germany), 5% Fetal Bovine Serum (Lonza, Wuppertal, Germany), 2.5% Penicillin/Streptomycin and Glutamine (PAA, Pasching, Austria) as adherent cultures when the plates are coated with Poly-L-ornithine ([…] in water) for at least one hour at 37° C. For passaging PC12-cells were resuspended with Accutase (PAA, Pasching, Austria) for 10 minutes at 37° C. once a week.
(§3) For all experiments cells were plated (quadruplicates) on Poly-L-ornithine-coated 96-well plates at a density of 10^4 cells per well. For Caspase 3/7-measurement cells were seeded in a white 96-well-plate to detect luminescence. As positive-control for neuroprotection Nerve Growth Factor (NGF) (50 ng/ml and 100 ng/ml) was used. To induce hypoxia CoCl2 (300 μM) was added to the cells after 20-24 hours. The control-treatment was compound 1a (ENDF1), compound 1b (ENDF3), compound 3a (ENDF2), ENDF4 or Osajin in the concentrations 1 μM and 10 μM in proliferation-media without CoCl2.
For LDH-release cells were centrifuged at 1050 rpm for 5 minutes. After 24 hours of stimulation, the supernatant was mixed in an equal amount with LDH-substrate and incubated in the dark for 30 minutes. Afterwards stop solution was added and absorbance was measured at 490 nm, the blank-values are subtracted.

[2] = tested on: chicken dorsal root ganglion neurons; experiment: neurite outgrowth in primary chicken dorsal root ganglion neurons; type: cell-based; details: E8 and E15 DRG neurons, 12 to 24 hours; compound 1a 10 μM, NGF 20 ng/ml; GAP-43 staining
Experimental: Dorsal root ganglion neurons comprise of an axon with two branches and are a good model for neuronal differentiation. Embryonic day 8 and 15 chicken dorsal root ganglions were examined for immunochemical staining with GAP43 after incubation with NGF 20 ng/ml and compound 1a (ENDF1) 10 μM to analyze whether compound 1a alone or in combination with the nerve growth factor enhances neurite outgrowth and branching.
Embryonic day (E) 8 and E15 chicken Dorsal Root Ganglions (DRGs) were prepared as described in: Aigner, 1993; Aigner, 1995. Briefly, foetuses were taken out of the egg, decapitated and the DRGs were targeted from the ventral side. The 10 lumbar region DRGs per foetus were dissected, and a total of 100 DRGs were collected in 10 ml DPBS in a 15 ml Falcon tube. DRGs were centrifuged 120×g for 3 min and then enzymatically treated with 1 ml trypsin 0.5 mg/ml+EDTA 0.22 mg/ml (PAA, Pasching, Austria) for 15 min. Then, 9 ml of DMEM 10% FCS were added to inactivate the trypsin and DRGs were centrifuged 120×g for 5 min. DRGs were resuspended and washed with 5 ml of DMEM 10% FCS, pipetted up and down to dissociate them, centrifuged, resuspended in 5 ml of DMEM 10% FCS and transferred into a 60 mm diameter cell culture dish. […]

PC12 cells [3] = experiment: PC12 cobalt-chloride stress test, Caspase 3/7 activation; type: cell-based, rat; details: CoCl2 300 μM, 24 hours; compounds 10 μM, NGF 50 ng/ml; FIG. 7A
Experimental: as §1, §2, §3
For Caspase 3/7-activation Caspase 3/7 substrate was added to the cells in an equal amount 22 hours after stimulation. Plates are incubated for 2 hours at room temperature in the dark, luminescence was measured 24 hours after stimulation and the blank-values are subtracted.

Substance: NGF: Nerve Growth Factor, positive control for neuroprotection and neurite outgrowth
- protection from CoCl2 induced LDH release (cell death) (PC12 cells [1]): partially protected; also recorded: slightly decrease the LDH release
- neurite extension [2]: strongly promote neurite extension; also recorded: potent enhancer of neuronal differentiation
- protection from CoCl2 induced Caspase 3/7 activity (PC12 cells [3]): partially protected; also recorded: inhibits CoCl2 induced Caspase 3/7 activity
